Square brackets hold non-standard residues; d marks the D form. Peptide text beside a SMILES is read from it. * marks the point of attachment. Cys(free,S-linked) = N[C@@H](CS*)C(=O)O; d(hLeu) = CC(C)CC[C@@H](N)C(=O)O; dCha = N[C@H](CC1CCCCC1)C(=O)O; dChg = N[C@@H](C(=O)O)C1CCCCC1; dPhg = N[C@@H](C(=O)O)c1ccccc1; dTle = CC(C)(C)[C@@H](N)C(=O)O; dAbu = CC[C@@H](N)C(=O)O
Columns and labels:
[1] = target: T1, human calcium-sensing receptor (CaSR) (Homo sapiens, UniProt P41180); assay: Agonist activity on human calcium-sensing receptor (IP-One HTRF in stably transfected HEK293/CaSR cells); type: cell-based; conditions: HEK293/CaSR cells, IP-One production, 60 min at 37° C., CaCl2 1.2 mM; read-out: EC50 for calcium-sensing receptor
T1 construct: host or cells: HEK293
T1 sequence (P41180 20-1078): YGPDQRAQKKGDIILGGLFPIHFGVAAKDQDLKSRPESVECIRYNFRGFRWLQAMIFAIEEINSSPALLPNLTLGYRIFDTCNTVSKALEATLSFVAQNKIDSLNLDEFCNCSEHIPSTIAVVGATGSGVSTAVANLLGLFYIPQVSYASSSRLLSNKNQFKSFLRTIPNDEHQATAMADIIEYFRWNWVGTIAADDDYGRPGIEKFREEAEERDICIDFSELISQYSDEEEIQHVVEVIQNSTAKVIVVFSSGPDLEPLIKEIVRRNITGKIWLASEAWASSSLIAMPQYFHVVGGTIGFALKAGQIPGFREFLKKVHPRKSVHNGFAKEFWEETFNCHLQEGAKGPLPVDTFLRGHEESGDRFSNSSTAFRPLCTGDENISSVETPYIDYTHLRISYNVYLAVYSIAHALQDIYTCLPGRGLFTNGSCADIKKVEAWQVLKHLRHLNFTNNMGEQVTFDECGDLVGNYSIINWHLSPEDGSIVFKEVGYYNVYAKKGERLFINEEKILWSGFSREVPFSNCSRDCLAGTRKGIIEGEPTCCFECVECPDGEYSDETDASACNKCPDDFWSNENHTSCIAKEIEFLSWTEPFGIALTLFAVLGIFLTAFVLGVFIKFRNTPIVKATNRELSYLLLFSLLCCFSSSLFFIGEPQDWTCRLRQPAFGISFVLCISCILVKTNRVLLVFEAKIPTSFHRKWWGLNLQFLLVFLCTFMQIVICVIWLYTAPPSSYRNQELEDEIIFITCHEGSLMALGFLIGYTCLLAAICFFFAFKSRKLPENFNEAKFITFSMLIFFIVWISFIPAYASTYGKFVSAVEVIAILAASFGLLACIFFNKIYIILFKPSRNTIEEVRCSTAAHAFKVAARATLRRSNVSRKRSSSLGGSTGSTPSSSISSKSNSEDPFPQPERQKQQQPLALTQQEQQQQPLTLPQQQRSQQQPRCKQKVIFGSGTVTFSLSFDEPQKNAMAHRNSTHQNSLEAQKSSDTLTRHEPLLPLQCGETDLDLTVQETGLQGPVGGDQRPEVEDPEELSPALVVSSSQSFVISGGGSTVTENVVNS
Procedure: 3.1.1 Objective: The test example is intended to measure the agonist activity of compounds 1-38 on the human calcium-sensing receptor (CaSR).
Stably transfected HEK293/CaSR cells (source: Pharmaron) were cultured in a complete medium (composition: DMEM, high glucose+10% FBS+2 mM GlutaMAX+1× Penicillin-Streptomycin+200 μg/mL Hygromycin B) and incubated at 37° C./5% CO2 till 70%-90% cell confluence. The cells were digested with TrypLE, inoculated into 384-well cell culture plates, and cultured overnight at 37° C./5% CO2. After buffer exchange, stimulation buffer (HEPES 10 mM, MgCl2 0.5 mM, KCl 4.2 mM, NaCl 146 mM, glucose 5.5 mM, LiCl 50 mM, CaCl2 1.2 mM) and various concentrations of the test example compounds were added and incubated at 37° C. for 60 min. Production of IP-One in cells was detected according to the procedures in the Cisbio IP-One Tb kit instructions. The EC50 values of various test example compounds in influencing human calcium-sensing receptor was calculated by software after the raw data of the example compounds were collected, so as to evaluate the agonist activity of the example compounds on human calcium-sensing receptor.
HTRF signal was read by an EnVision detector with an excitation wavelength of 320 nm and emission wavelengths of 620 nm and 665 nm. The signal ratio (665 nm/620 nm×10,000) was calculated and fitted non-linearly to the sample concentration in GraphPad Prism 6 using a four-parameter equation to give EC50 values of the test example compounds 1-38.

[2] = system: rat peritoneal mast cells; assay: In vitro histamine release in rat peritoneal mast cells (histamine ELISA); type: cell-based; conditions: for Relative fold of histamine release in vitro: test compound final concentration 10 μM, 15 min at 37° C., relative to PBS buffer (1.00)
Procedure: To evaluate the in vitro histamine release levels induced by some of the test example compounds, rat peritoneal mast cells were collected by lavaging rat peritoneum with a lavage buffer (cold HBSS+25 mM HEPES containing heparin 5 U/mL, pH 7.4). After collection, the cells were centrifuged, and the lavage buffer was discarded. The cells were resuspended and washed twice with a stimulation buffer (HBSS+25 mM HEPES+1 mM CaCl2), pH 7.4). The cells were plated at a density of 10^5 cell/well (200 μL/well) and incubated at 37° C. for 15 min with positive control compound 48/80 (final concentration: 4 μg/mL), test example compounds (final concentration: 10 μM) or vehicle control. The cells were centrifuged, and cell supernatant was collected and tested for histamine concentration according to LDN Histamine ELISA kit (BAE-1000) instructions.

CC(=O)N[C@H](CSSC[C@H](N)C(=O)O)C(=O)N[C@H](Cc1c[nH]cn1)C(=O)N[C@H](CCCNC(=N)N)C(=O)N[C@H](CCCNC(=N)N)C(=O)N[C@H](CCCNC(=N)N)C(=O)N[C@H](CO)C(=O)N[C@H](CCCNC(=N)N)C(N)=O [Compound 10, Ac-c(C)-h-r-r-r-s-r-NH2] (Ac-[dC](Cys(free,S-linked))[dH][dR][dR][dR][dS][dR]-NH2)
EC50 [1]: 3.52 µM
Relative fold of histamine release in vitro [2]: 3.66

CC(=O)N[C@H](CSSC[C@H](N)C(=O)O)C(=O)N[C@H](CCCNC(=N)N)C(=O)N[C@H](CCCNC(=N)N)C(=O)N[C@H](Cc1ccc(O)cc1)C(=O)N[C@H](CCCNC(=N)N)C(=O)N[C@H](C)C(=O)N[C@H](CCCNC(=N)N)C(N)=O [Compound 24, Ac-c(C)-r-r-y-r-a-r-NH2] (Ac-[dC](Cys(free,S-linked))[dR][dR][dY][dR][dA][dR]-NH2)
EC50 [1]: 2.03 µM
Relative fold of histamine release in vitro [2]: 3.18

CC(=O)N[C@H](CSSC[C@H](N)C(=O)O)C(=O)N[C@H](CCCNC(=N)N)C(=O)N[C@H](CCCNC(=N)N)C(=O)N[C@H](CC1CCCCC1)C(=O)N[C@H](CCCNC(=N)N)C(=O)N[C@H](C)C(=O)N[C@H](CCCNC(=N)N)C(N)=O [Compound 21, Ac-c(C)-r-r-(D-Cha)-r-a-r-NH2] (Ac-[dC](Cys(free,S-linked))[dR][dR][dCha][dR][dA][dR]-NH2)
EC50 [1]: 5.59 µM
Relative fold of histamine release in vitro [2]: 3.42

CC(=O)N[C@H](CSSC[C@H](N)C(=O)O)C(=O)N[C@H](Cc1ccc(O)cc1)C(=O)N[C@H](CCCNC(=N)N)C(=O)N[C@H](CCCNC(=N)N)C(=O)N[C@H](CCCNC(=N)N)C(=O)N[C@H](C)C(=O)N[C@H](CCCNC(=N)N)C(N)=O [Compound 4, Ac-c(C)-(D-Tyr)-r-r-r-a-r-NH2] (Ac-[dC](Cys(free,S-linked))[dY][dR][dR][dR][dA][dR]-NH2)
EC50 [1]: 6.92 µM
Relative fold of histamine release in vitro [2]: 3.94

CC(=O)N[C@H](CSSC[C@H](N)C(=O)O)C(=O)N[C@H](CCCNC(=N)N)C(=O)N[C@H](CCCNC(=N)N)C(=O)N[C@H](CCC(C)C)C(=O)N[C@H](CCCNC(=N)N)C(=O)N[C@H](CO)C(=O)N[C@H](CCCNC(=N)N)C(N)=O [Compound 33, Ac-c(C)-r-r-(D-hLeu)-r-s-r-NH2] (Ac-[dC](Cys(free,S-linked))[dR][dR][d(hLeu)][dR][dS][dR]-NH2)
EC50 [1]: 5.03 µM
Relative fold of histamine release in vitro [2]: 2.50

CC(=O)N[C@H](CSSC[C@H](N)C(=O)O)C(=O)N[C@H](Cc1c[nH]c2ccccc12)C(=O)N[C@H](CCCNC(=N)N)C(=O)N[C@H](CCCNC(=N)N)C(=O)N[C@H](CCCNC(=N)N)C(=O)N[C@H](C)C(=O)N[C@H](CCCNC(=N)N)C(N)=O [Compound 5, Ac-c(C)-(D-Trp)-r-r-r-a-r-NH2] (Ac-[dC](Cys(free,S-linked))[dW][dR][dR][dR][dA][dR]-NH2)
EC50 [1]: 1.14 µM
Relative fold of histamine release in vitro [2]: 4.13

CC(=O)N[C@H](CSSC[C@H](N)C(=O)O)C(=O)N[C@H](CCCNC(=N)N)C(=O)N[C@H](CCCNC(=N)N)C(=O)N[C@H](CCC(N)=O)C(=O)N[C@H](CCCNC(=N)N)C(=O)N[C@H](CO)C(=O)N[C@H](CCCNC(=N)N)C(N)=O [Compound 26, Ac-c(C)-r-r-q-r-s-r-NH2] (Ac-[dC](Cys(free,S-linked))[dR][dR][dQ][dR][dS][dR]-NH2)
EC50 [1]: 9.24 µM
Relative fold of histamine release in vitro [2]: 1.73

CC(=O)N[C@H](CSSC[C@H](N)C(=O)O)C(=O)N[C@H](CCCNC(=N)N)C(=O)N[C@H](CCCNC(=N)N)C(=O)N[C@@H](C(=O)N[C@H](CCCNC(=N)N)C(=O)NCC(=O)N[C@H](CCCNC(=N)N)C(N)=O)C(C)C [Compound 30, Ac-c(C)-r-r-v-r-G-r-NH2] (Ac-[dC](Cys(free,S-linked))[dR][dR][dV][dR]G[dR]-NH2)
EC50 [1]: 19.6 µM
Relative fold of histamine release in vitro [2]: 1.51

CC(=O)N[C@H](CSSC[C@H](N)C(=O)O)C(=O)N[C@H](CCCNC(=N)N)C(=O)N[C@H](CCCNC(=N)N)C(=O)N[C@@H](C(=O)N[C@H](CCCNC(=N)N)C(=O)N[C@H](C)C(=O)N[C@H](CCCNC(=N)N)C(N)=O)C(C)(C)C [Compound 18, Ac-c(C)-r-r-(D-Tle)-r-a-r-NH2] (Ac-[dC](Cys(free,S-linked))[dR][dR][dTle][dR][dA][dR]-NH2)
EC50 [1]: 13.4 µM
Relative fold of histamine release in vitro [2]: 1.24

CC(=O)N[C@H](CSSC[C@H](N)C(=O)O)C(=O)N[C@H](CCCNC(=N)N)C(=O)N[C@H](CCCNC(=N)N)C(=O)N[C@H](CCC(C)C)C(=O)N[C@H](CCCNC(=N)N)C(=O)NCC(=O)N[C@H](CCCNC(=N)N)C(N)=O [Compound 34, Ac-c(C)-r-r-(D-hLeu)-r-G-r-NH2] (Ac-[dC](Cys(free,S-linked))[dR][dR][d(hLeu)][dR]G[dR]-NH2)
EC50 [1]: 12.2 µM
Relative fold of histamine release in vitro [2]: 2.28

CC(=O)N[C@H](CSSC[C@H](N)C(=O)O)C(=O)N[C@H](CCCNC(=N)N)C(=O)N[C@H](CCCNC(=N)N)C(=O)N[C@H](CO)C(=O)N[C@H](CCCNC(=N)N)C(=O)NCC(=O)N[C@H](CCCNC(=N)N)C(N)=O [Compound 22, Ac-c(C)-r-r-s-r-G-r-NH2] (Ac-[dC](Cys(free,S-linked))[dR][dR][dS][dR]G[dR]-NH2)
EC50 [1]: 15.4 µM
Relative fold of histamine release in vitro [2]: 1.63

CC(=O)N[C@H](CSSC[C@H](N)C(=O)O)C(=O)N[C@@H](C(=O)N[C@H](CCCNC(=N)N)C(=O)N[C@H](CCCNC(=N)N)C(=O)N[C@H](CCCNC(=N)N)C(=O)N[C@H](C)C(=O)N[C@H](CCCNC(=N)N)C(N)=O)c1ccccc1 [Compound 1, Ac-c(C)-(D-Phg)-r-r-r-a-r-NH2] (Ac-[dC](Cys(free,S-linked))[dPhg][dR][dR][dR][dA][dR]-NH2)
EC50 [1]: 15.7 µM
Relative fold of histamine release in vitro [2]: 1.50

CC(=O)N[C@H](CSSC[C@H](N)C(=O)O)C(=O)N[C@H](CCCNC(=N)N)C(=O)N[C@H](CCCNC(=N)N)C(=O)N[C@@H](C(=O)N[C@H](CCCNC(=N)N)C(=O)N[C@H](C)C(=O)N[C@H](CCCNC(=N)N)C(N)=O)C1CCCCC1 [Compound 20, Ac-c(C)-r-r-(D-Chg)-r-a-r-NH2] (Ac-[dC](Cys(free,S-linked))[dR][dR][dChg][dR][dA][dR]-NH2)
EC50 [1]: 7.53 µM
Relative fold of histamine release in vitro [2]: 2.33

CC[C@@H](NC(=O)[C@@H](CCCNC(=N)N)NC(=O)[C@@H](CCCNC(=N)N)NC(=O)[C@@H](CSSC[C@H](N)C(=O)O)NC(C)=O)C(=O)N[C@H](CCCNC(=N)N)C(=O)NCC(=O)N[C@H](CCCNC(=N)N)C(N)=O [Compound 32, Ac-c(C)-r-r-(D-Abu)-r-G-r-NH2] (Ac-[dC](Cys(free,S-linked))[dR][dR][dAbu][dR]G[dR]-NH2)
EC50 [1]: 13.1 µM
histamine release levels in rat peritoneal mast cells in vitro relative to etelcalcetide ([2]; 10 μM, comparison with etelcalcetide): reduction in histamine release levels
Relative fold of histamine release in vitro [2]: 1.41

Reference: patent US20230041996A1, “CALCIUM-SENSING RECEPTOR AGONIST COMPOUND AND APPLICATION THEREOF” (BEIJING TUO JIE BIOPHARMACEUTICAL CO. LTD., priority 2019, published 2023)
